Measured values taken from patent US10844351B2, “Method for producing otic progenitors” (priority 2015, dated 2020).

Legend:
Format in all cases: cell-based, human
H14S9 hES cell line [1] = experiment: QPCR of otic marker gene expression after 12 day otic differentiation protocol
Method: The effect of the Wnt inhibitors was initially explored in the backdrop of a known differentiation protocol, which includes FGF 3 and FGF 10 supplementation from the outset. Experiments were carried out to determine the effect of canonical Wnt inhibition on the differentiation of otic progenitors in FGF medium (standard concentration of 50 ng/ml for each FGF 3 and FGF 10) and obtain an optimal working concentration. IWR-1-endo was present from day 0 of differentiation (day 0 refers to the initial seeding of the hES cells into differentiation conditions) and were maintained throughout the 12 day protocol. At the end of the differentiation protocol, RNA was extracted and PAX2, PAX8 and FOXG1 gene expression was quantified by real time PCR (QPCR) using SYBR Green (Sigma Aldrich). Delta Cts were calculated against the large ribosomal protein RPLPO housekeeping gene, and Delta Ct values were compared against the levels expressed by cells differentiated in the control DFNB medium (Livak and Schmittgen, 2001). FIG. 1 compares the dose responses of IWR-1-endo and the effect on the gene expression of PAX2, PAX8 and FOXG1 in the H14S9 hES cell line. Dimethyl sulfoxide (DMSO) was the vehicle for all small molecule compounds. A vehicle-only control was added to FGF medium to ascertain the effects of DMSO. […] This provided confidence that the Wnt inhibitor compound was exerting an effect on gene expression, and not the carrier vehicle. […] The optimal concentration of IWR-1-endo agrees with published findings in human stem cell studies (Chen et al., 2009, Hudson et al., 2012).
Further investigating the timing of canonical Wnt inhibition it was important to address whether inhibition was required throughout the whole 12-day differentiation protocol. Experiments were set up to inhibit canonical Wnt signalling for different lengths of time. In combination with FGF medium, Wnt inhibition took place from day 0 to day 4, day 0 to day 6, or day 0 to day 8. […] At the end of day 12, gene expression of PAX2, PAX8 and FOXG1 was quantified relative to the DFNB baseline condition, and is shown in FIG. 6. […]

H14S9 hES cell line [2] = experiment: Cell death in differentiating cultures; details: 20 μM IWR-1-endo in FGF medium
Method: The effect of the Wnt inhibitors was initially explored in the backdrop of a known differentiation protocol, which includes FGF 3 and FGF 10 supplementation from the outset. Experiments were carried out to determine the effect of canonical Wnt inhibition on the differentiation of otic progenitors in FGF medium (standard concentration of 50 ng/ml for each FGF 3 and FGF 10) and obtain an optimal working concentration. IWR-1-endo was present from day 0 of differentiation (day 0 refers to the initial seeding of the hES cells into differentiation conditions) and were maintained throughout the 12 day protocol. At the end of the differentiation protocol, RNA was extracted and PAX2, PAX8 and FOXG1 gene expression was quantified by real time PCR (QPCR) using SYBR Green (Sigma Aldrich). Delta Cts were calculated against the large ribosomal protein RPLPO housekeeping gene, and Delta Ct values were compared against the levels expressed by cells differentiated in the control DFNB medium (Livak and Schmittgen, 2001). FIG. 1 compares the dose responses of IWR-1-endo and the effect on the gene expression of PAX2, PAX8 and FOXG1 in the H14S9 hES cell line. Dimethyl sulfoxide (DMSO) was the vehicle for all small molecule compounds. A vehicle-only control was added to FGF medium to ascertain the effects of DMSO. […]

H14S9 hES cell line [3] = experiment: QPCR of ectoderm, mesoderm and endoderm lineage marker gene expression after 12 day otic differentiation
Method: With the H14S9 hES cell line, 12 day otic differentiation experiments were carried out in control DFNB, FGF, or FGF with 10 μM IWR-1-endo supplemented medium. Gene expression of the three germ layer lineages relative to the baseline DFNB condition were quantified by QPCR. Two gene markers for each germ layer were investigated; PAX6 and NEST/N (ectoderm), BRACHYURY and MEOX1 (mesoderm), and AFP and GATA6 (endoderm) (FIG. 2).
Following a lost-of function/gain-of function paradigm, an experiment was done to determine the effect of activating canonical Wnt signalling throughout the 12 days of otic differentiation. The small molecule compound BIO (6-bromoindirubin-3′-oxime, Tocris) is a potent inhibitor of GSK-3β kinase, a component of the β-catenin degradation complex. Inhibition of GSK-3β kinase activity disrupts the proteolytic breakdown of β-catenin and so Wnt activity is sustained (Meijer et al., 2003). BIO is well established in the literature and has been used to investigate survival and proliferation of hES cells and also lineage differentiation studies (Dravid et al., 2005) (Tseng et al., 2006). BIO was tested at a concentration of 2 μM (as recommended in the literature). […] In contrast to inhibiting canonical Wnt signalling throughout the 12 day protocol, activating canonical Wnt signalling throughout appears to downregulate gene expression of the otic and ectoderm markers, with upregulation of markers of mesoderm and endoderm.

[4] = FGF medium with 10 μM IWR-1-endo, 12 days, compared to FGF condition
[5] = 2 μM BIO in FGF medium throughout 12 days, one experiment

Structure (SMILES)	gene expression of PAX2, PAX8 and FOXG1 (H14S9 hES cell line [1]; 10 μM IWR-1-endo in FGF medium (50 ng/ml FGF 3 and FGF 10), day 0 to day 12, relative to DFNB)	gene expression of PAX2, PAX8 or FOXG1 (H14S9 hES cell line [1]; IWR-1-endo day 0 to day 4 or day 0 to day 6, then FGF medium only until day 12, compared to FGF medium alone)	gene expression of the otic markers (H14S9 hES cell line [1]; canonical Wnt inhibition with IWR-1-endo day 0 to 8 or day 0 to 12, compared to standard FGF medium)	cell death in the cultures (H14S9 hES cell line [2])	ectodermal differentiation (PAX6, NESTIN gene expression) (H14S9 hES cell line [3]; [4])	gene expression of mesoderm and endoderm markers (H14S9 hES cell line [3]; [4])	AFP gene expression (H14S9 hES cell line [3]; FGF medium with IWR-1-endo, 12 days, compared to FGF condition)	gene expression of markers of mesoderm and endoderm (H14S9 hES cell line [3]; [5])	gene expression of the otic and ectoderm markers (H14S9 hES cell line [3]; [5])
O=C(Nc1cccc2cccnc12)c1ccc(N2C(=O)[C@@H]3[C@H](C2=O)[C@@H]2C=C[C@H]3C2)cc1 [IWR-1-endo]	more robust and reproducible upregulation	did not significantly alter	Significant upregulation	very high levels of cell death	enhanced further over the FGF condition	significantly reduced compared to the FGF condition	significant downregulation		
O=C1Nc2cc(Br)ccc2/C1=C1/Nc2ccccc2/C1=N\O [BIO, 6-bromoindirubin-3′-oxime]								upregulation	downregulate
